Measurements: a compilation of properties of binary mixtures (doi:10.1016/j.molliq.2013.10.014)

Experiment: xn = mol fraction of the nth substance listed
Conditions: 100 kPa

CC[n+]1ccn(C)c1.O=S(=O)([N-]S(=O)(=O)C(F)(F)F)C(F)(F)F + c1ccccc1
viscosity [mPa·s]
Conditions | x2 = 0 | x2 = 0.135 | x2 = 0.339 | x2 = 0.471 | x2 = 0.492
298.15 K | 33 | – | – | 11.41 | 10.4
308.15 K | 23.7 | 18.44 | 11.75 | 8.65 | 7.98
318.15 K | 17.69 | 14.02 | 9.11 | – | 6.31
328.15 K | – | 10.93 | – | 5.5 | 5.16

c1ccsc1 + CCCC[n+]1ccn(C)c1.O=S(=O)([N-]S(=O)(=O)C(F)(F)F)C(F)(F)F
viscosity [mPa·s]
Conditions | x1 = 0.089 | x1 = 0.276 | x1 = 0.336 | x1 = 0.561 | x1 = 0.77 | x1 = 1
298.15 K | 42.6 | 26.6 | 23.2 | – | 6.86 | –
308.15 K | – | – | 16.58 | 10.95 | 5.35 | 0.585
318.15 K | 20.8 | 13.9 | 12.37 | 8.45 | 4.29 | 0.525
328.15 K | 15.53 | 10.66 | 9.54 | 6.72 | 3.52 | 0.47

c1ccccc1 + CC[n+]1ccn(C)c1.O=S(=O)([N-]S(=O)(=O)C(F)(F)F)C(F)(F)F
x1 = 1
Conditions | viscosity [mPa·s]
298.15 K | 0.605
308.15 K | 0.527
318.15 K | 0.466
328.15 K | 0.363

CCCC[n+]1ccn(C)c1.O=S(=O)([N-]S(=O)(=O)C(F)(F)F)C(F)(F)F + c1ccsc1
x2 = 0
Conditions | viscosity [mPa·s]
298.15 K | 51.32
308.15 K | 34.4
318.15 K | 24.4

c1ccccc1 + CCCC[n+]1ccn(C)c1.O=S(=O)([O-])C(F)(F)F
x1 = 1
Conditions | viscosity [mPa·s]
298.15 K | 0.605
328.15 K | 0.363

CCCC[n+]1ccn(C)c1.O=S(=O)([O-])C(F)(F)F + c1ccccc1
viscosity [mPa·s]
Conditions | x2 = 0 | x2 = 0.122 | x2 = 0.304 | x2 = 0.353 | x2 = 0.467 | x2 = 0.573
298.15 K | – | – | 37.2 | 32.8 | 19.8 | –
308.15 K | 56.4 | – | – | 22.6 | 14.22 | 9.37
318.15 K | 38.3 | 29.2 | 18.23 | 16.33 | – | –
328.15 K | 27.3 | 21.2 | – | 12.3 | – | 5.71
